Literature values in PMC2975871 (The FEBS journal, 2010).
Converted amounts (≈) assume the structure as drawn.

Assays:
[1] = system: PR with mutation I50V
[2] = system: I54M mutation

For `CC(C)CN(C[C@@H](O)[C@H](Cc1ccccc1)NC(=O)O[C@H]1CO[C@H]2OCC[C@H]21)S(=O)(=O)c1ccc(N)cc1` [DRV, darunavir], which “worse inhibition relative to wild type enzyme” value [1] is on record?
The value was 9 fold.

For `CC(C)(C)NC(=O)[C@@H]1CN(Cc2cccnc2)CCN1C[C@@H](O)C[C@@H](Cc1ccccc1)C(=O)N[C@H]1c2ccccc2C[C@H]1O` [IDV, indinavir], which decreased inhibition [1] is on record?
Its decreased inhibition is 50 fold.

Which water solubility does the source give for `CC(C)(C)NC(=O)[C@@H]1C[C@@H]2CCCC[C@@H]2CN1C[C@@H](O)[C@H](Cc1ccccc1)NC(=O)[C@H](CC(N)=O)NC(=O)c1ccc2ccccc2n1` [SQV, saquinavir] here?
The water solubility was 36 µg/mL (≈ 53.7 µM).

And the decreased inhibition [1]?
Its decreased inhibition is 20 fold.

Which “increased IC50” value [2] does the source give for `CC(C)CN(C[C@@H](O)[C@H](Cc1ccccc1)NC(=O)O[C@H]1CCOC1)S(=O)(=O)c1ccc(N)cc1` [amprenavir] here?
The value was 6 fold.
